Results reported in patent US20240293400A1, “NOVEL AZAINDOLE DERIVATIVES AS ANTIVIRAL AGENTS” (Centre National de la Recherche Scientifique, priority 2021, published 2024).

Columns and labels:
Assay type in all cases: cell-based
[1] = target: Axl (Homo sapiens (Human), UniProt P30530); assay: Inhibition of the phosphorylation of the kinase Axl in cellulo (immunoblot, Y779); conditions: A549 cells, 2.5 μM compound 1 hour, 1 mM pervanadate 5 min
Protocol: FIG. 1: […] The A549 cells were preincubated for 1 hour with 2.5 μM of compounds targeting Axl. They were then stimulated for 5 min with 1 mM of pervanadate. The evaluation of the inhibition of the phosphorylation of the […] residue of the intracytoplasmic domain of Axl kinase is carried out by immunoblot using the antibody R&D Systems (AF2228) and measuring the intensity of the signals by densitometry (Image J) (P-Axl/Axl ratio). The A549 cells were preincubated for 1 hour with 2.5 μM of compound 1, 2, or 3. They were then stimulated for 5 min with 1 mM pervanadate, a compound known to activate the kinase Axl by phosphorylation. The inhibition of the phosphorylation of the […] residue of the intracytoplasmic domain of Axl is visualized by immunoblot using the antibody R&D Systems (AF2228).

[2] = system: SARS-COV-2 virus, BetaCoV/France/IDF0371/2020; assay: Anti-SARS-COV-2 activity in A549-ACE2 cells; conditions: MOI=0.01, 24 hours, qRT-PCR; for infection of the A549-ACE2 cells by the SARS-COV-2 virus: 1.25 μM; for IC50: A549-ACE2 cells
[3] = system: WNV virus, Kunjin strain; assay: Antiviral activity against the WNV virus, Kunjin strain in HeLa cells; conditions: summary table
[4] = system: SARS-COV-2; assay: Anti-SARS-COV-2 activity in primary human bronchial epithelium model (MucilAir); conditions: 1.25 μM, 24 hours, qRT-PCR

Sequence of Axl (P30530 26-894): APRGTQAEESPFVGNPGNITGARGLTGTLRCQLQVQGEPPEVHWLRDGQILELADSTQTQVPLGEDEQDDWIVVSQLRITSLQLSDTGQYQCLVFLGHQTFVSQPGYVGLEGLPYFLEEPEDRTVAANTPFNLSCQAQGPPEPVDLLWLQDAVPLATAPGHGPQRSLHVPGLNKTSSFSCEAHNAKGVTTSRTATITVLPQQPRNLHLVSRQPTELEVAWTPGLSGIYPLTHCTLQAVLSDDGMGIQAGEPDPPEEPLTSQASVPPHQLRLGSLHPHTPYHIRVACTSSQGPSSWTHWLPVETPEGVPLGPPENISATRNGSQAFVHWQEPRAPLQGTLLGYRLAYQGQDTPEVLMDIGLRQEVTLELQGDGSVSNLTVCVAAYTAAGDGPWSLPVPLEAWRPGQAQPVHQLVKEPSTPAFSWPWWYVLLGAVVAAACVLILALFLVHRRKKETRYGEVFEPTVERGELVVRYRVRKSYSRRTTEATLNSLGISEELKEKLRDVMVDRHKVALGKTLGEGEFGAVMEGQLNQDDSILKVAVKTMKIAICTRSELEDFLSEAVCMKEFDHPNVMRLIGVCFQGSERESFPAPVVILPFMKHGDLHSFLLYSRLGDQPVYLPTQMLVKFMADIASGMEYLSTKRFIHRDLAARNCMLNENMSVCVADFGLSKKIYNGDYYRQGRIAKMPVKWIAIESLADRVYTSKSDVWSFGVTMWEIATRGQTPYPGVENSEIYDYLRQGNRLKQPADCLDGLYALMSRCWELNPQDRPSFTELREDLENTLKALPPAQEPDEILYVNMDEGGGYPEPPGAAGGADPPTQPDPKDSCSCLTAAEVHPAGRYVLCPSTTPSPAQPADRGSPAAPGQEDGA

CN1CCN(Cc2cccc(-c3cnc4[nH]cc(-c5cc(NC(=O)Nc6ccccc6)ccc5F)c4c3)c2)CC1 [Compound 3]
activation (phosphorylation) of the Y779 residue of AxL compared to the control (DMSO) [1]: much lower or even zero activation
infection of the A549-ACE2 cells by the SARS-COV-2 virus [2]: prevent the infection
IC50 [2]: 38 nM

CN1CCN(Cc2cccc(-c3cnc4[nH]cc(-c5cc(CNCc6ccccc6)ccc5F)c4c3)c2)CC1 [Compound 2]
activation (phosphorylation) of the Y779 residue of AxL compared to the control (DMSO) [1]: much lower or even zero activation
active on infectious model KUNV [3]: ACTIVE
infection of the A549-ACE2 cells by the SARS-COV-2 virus [2]: prevent the infection
IC50 [2]: 57 nM

CN1CCN(Cc2cccc(-c3cnc4[nH]cc(-c5cc(CNCCc6ccc(O)cc6)ccc5F)c4c3)c2)CC1 [Compound 1]
activation (phosphorylation) of the Y779 residue of AxL compared to the control (DMSO) [1]: much lower or even zero activation
active on infectious model KUNV [3]: ACTIVE
infection of the A549-ACE2 cells by the SARS-COV-2 virus [2]: prevent the infection
IC50 [2]: 19 nM
infection of the primary bronchial epithelium by SARS-COV-2 [4]: inhibits the infection
